Drawing on US8906852B2 (MethylGene Inc., priority 2010, dated 2014), this text covers IC50 for 33 molecules.

Structures are written as SMILES.

The target of the experiment is T1, VEGFR/KDR (Homo sapiens, UniProt P35968).
T1 construct: made in house; host or cells: Sf9 cells (Spodoptera frugiperda), baculovirus
T1 sequence (P35968 806-1356): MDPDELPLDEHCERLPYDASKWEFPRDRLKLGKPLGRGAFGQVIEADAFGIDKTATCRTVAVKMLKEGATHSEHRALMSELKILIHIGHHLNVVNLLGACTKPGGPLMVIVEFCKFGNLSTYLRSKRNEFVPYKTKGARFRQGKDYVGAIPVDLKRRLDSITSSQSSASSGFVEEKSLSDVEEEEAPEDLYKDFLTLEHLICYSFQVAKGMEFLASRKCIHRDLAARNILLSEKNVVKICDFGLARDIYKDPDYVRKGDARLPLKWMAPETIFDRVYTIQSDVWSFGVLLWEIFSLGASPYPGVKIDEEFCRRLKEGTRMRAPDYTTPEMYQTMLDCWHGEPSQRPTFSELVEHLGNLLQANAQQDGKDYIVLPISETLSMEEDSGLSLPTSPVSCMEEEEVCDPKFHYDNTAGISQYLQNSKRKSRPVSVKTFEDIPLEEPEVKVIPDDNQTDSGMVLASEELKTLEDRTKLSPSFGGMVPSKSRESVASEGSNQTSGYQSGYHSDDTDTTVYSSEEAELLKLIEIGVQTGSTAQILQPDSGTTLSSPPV
Briefly: VEGFR/KDR kinase inhibition, DELFIA assay. It is filed as biochemical. Conditions: ATP 0.6 uM (2x Km), enzyme 5 nM. In short, it runs like this: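 DELFIA time-resolved fluorescence readout using Europium-tagged anti-phosphotyrosine antibody after EDTA stop. Kinase reaction on plate-bound poly(Glu4,Tyr) ran 10-30 min at 30° C with 5 nM enzyme and 0.6 uM ATP (2× Km), following 4 min on-ice pre-incubation with compound; IC50 over a concentration range.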
As to `CN(C)C(=O)c1cc2nccc(Oc3ccc(NC(=O)NC4CC4)cc3F)c2s1` [Compound 442], the IC50 was < 50 nM.

Turning to `CC(C)(C)OC(=O)N1CCN(Cc2ccc(-c3cc4nccc(Oc5ccc(NC(=O)NC6CC6)cc5F)c4s3)nc2)CC1` [Compound 48, tert-butyl 4-((6-(7-(4-(3-cyclopropylureido)-2-fluorophenoxy)thieno[3,2-b]-pyridin-2-yl)pyridin-3-yl)methyl)piperazine-1-carboxylate], the IC50 is < 50 nM. For the molecule `O=C(Nc1ccc(Oc2ccnc3cc(C(=O)N4CCCC4)sc23)c(F)c1)NC1CC1` [Compound 445], the IC50 was < 50 nM. As for `CC1=C(/C=C/C(C)=C/C=C/C(C)=C/C(=O)N2CCN(Cc3ccc(-c4cc5nccc(Oc6ccc(NC(=O)NC7CC7)cc6F)c5s4)nc3)CC2)C(C)(C)CCC1` [Compound 548, 1-cyclopropyl-3-(4-(2-(5-((4-((2E,4E,6E,8E)-3,7-dimethyl-9-(2,6,6-trimethylcyclohex-1-enyl)nona-2,4,6,8-tetraenoyl)piperazin-1-yl)methyl)pyridin-2-yl)thieno[3,2-b]pyridin-7-yloxy)-3-fluorophenyl)urea], the IC50 was ≥ 250 nM. `COC(=O)COC1CCN(Cc2ccc(-c3cc4nccc(Oc5ccc(NC(=O)NC6CC6)cc5F)c4s3)nc2)CC1` [Compound 328, methyl 2-(1-((6-(7-(4-(3-cyclopropylureido)-2-fluorophenoxy)thieno [3,2-b]pyridin-2-yl)pyridin-3-yl)methyl)piperidin-4-yloxy)acetate]: the IC50 was < 50 nM. Take `O=C(Nc1ccc(Oc2ccnc3cc(-c4ccc(CN5CCC6(CC5)CCN(C(=O)CO)C6)cn4)sc23)c(F)c1)NC1CC1` [Compound 524, 1-cyclopropyl-3-(3-fluoro-4-(2-(5-((2-(2-hydroxyacetyl)-2,8-diazaspiro[4.5]decan-8-yl)methyl)pyridin-2-yl)thieno[3,2-b]pyridin-7-yloxy)phenyl)urea]: the IC50 was < 50 nM.

Regarding `O=C(Nc1ccc(Oc2ccnc3cc(-c4ccc(CN5CC[C@H](F)C5)cn4)sc23)c(F)c1)NC1CC1` [Compound 323, (S)-1-cyclopropyl-3-(3-fluoro-4-(2-(5-((3-fluoropyrrolidin-1-yl)methyl)pyridin-2-yl)thieno[3,2-b]pyridin-7-yloxy)phenyl)urea], the IC50 is < 50 nM. As for `O=C(Nc1ccc(Oc2ccnc3cc(-c4ccc(C(=O)N5CCN(CCOCCO)CC5)cn4)sc23)c(F)c1)NC1CC1` [Compound 396], the IC50 is < 50 nM. In the case of `CN(CCC(=O)O)C1CCN(Cc2ccc(-c3cc4nccc(Oc5ccc(NC(=O)NC6CC6)cc5F)c4s3)nc2)CC1` [Compound 424, 3-((1-((6-(7-(4-(3-Cyclopropylureido)-2-fluorophenoxy)thieno[3,2-b]pyridin-2-yl)pyridin-3-yl)methyl)piperidin-4-yl)(methyl)amino)propanoic acid], the IC50 was < 50 nM. In the case of `CNC(=O)N(C)C1CCN(Cc2ccc(-c3cc4nccc(Oc5ccc(NC(=O)NC6CC6)cc5F)c4s3)nc2)CC1` [Compound 410] it was < 50 nM. Take `O=C(O)CC[C@@H](O)C(=O)N1CCN(Cc2ccc(-c3cc4nccc(Oc5ccc(NC(=O)NC6CC6)cc5F)c4s3)nc2)CC1` [Compound 546]: the IC50 was < 50 nM. For `COCCOCCOCCOCCNCc1ccc(-c2cc3nccc(Oc4ccc(NC(=O)NC5CC5)c(F)c4F)c3s2)nc1` [Compound 171, 1-(4-(2-(5-5,8,11,14-tetraoxa-2-azapentadecylpyridin-2-yl)thieno[3,2-b]pyridin-7-yloxy)-2,3-diiluorophenyl)-3-cyclopropylurea], the IC50 is < 50 nM.

Consider `CCNC(=O)N(CCOC)CCn1cc(-c2cc3nccc(Oc4ccc(NC(=O)NC5CC5)cc4F)c3s2)cn1` [Compound 255, N-(2-(4-(7-(4-(3-cyclopropylureido)-2-fluorophenoxy)thieno[3,2-b]-pyridine-2-yl)-1H-pyrazol-1-yl)ethyl)-N-(1-ethyl)-N-[3-(2-methoxyethyl)]urea], for which the IC50 is 50 to 100 nM. As to `COCCN(C)C1CCN(Cc2ccc(-c3cc4nccc(Oc5ccc(NC(=O)NC6CC6)cc5F)c4s3)nc2)CC1` [Compound 416], the IC50 was < 50 nM.

On to `COCCNCCc1ccc(-c2cc3nccc(Oc4ccc(NC(=O)C5(C(=O)Nc6ccc(F)cc6)CC5)cc4F)c3s2)nc1` [Compound 185, N-(3-fluoro-4-(2-(5-(2-(2-methoxyethylamino)ethyl)pyridin-2-yl)thieno[3,2-b]pyridin-7-yloxy)phenyl)-N-(4-fluorophenyl)cyclopropane-1,1-dicarboxamide], for which the IC50 is < 50 nM. As for `CN(C)[C@H]1CCN(Cc2ccc(-c3cc4nccc(Oc5ccc(NC(=O)NC6CC6)cc5F)c4s3)nc2)C1` [Compound 54, (S)-1-cyclopropyl-3-(4-(2-(5-((3-(dimethylamino)pyrrolidin-1-yl)methyl)pyridin-2-yl)thieno[3,2-b]pyridin-7-yloxy)-3-fluorophenyl)urea], the IC50 was < 50 nM. For the molecule `O=C(CO)N[C@H]1CCN(Cc2ccc(-c3cc4nccc(Oc5ccc(NC(=O)NC6CC6)cc5F)c4s3)nc2)C1` [Compound 497, (S)-N-(1-((6-(7-(4-(3-cyclopropylureido)-2-fluorophenoxy)thieno[3,2-b]pyridin-2-yl)-pyridin-3-yl)methyl)pyrrolidin-3-yl)-2-hydroxyacetamide], the IC50 is < 50 nM.

For `CC(C)NC(=O)Nc1ccc(Oc2ccnc3cc(-c4ncc(CN5CCOCC5)n4C)sc23)c(F)c1` [Compound 299, 1-(3-fluoro-4-(2-(1-methyl-5-(morpholinomethyl)-1H-imidazol-2-yl)thieno[3,2-b]pyridin-7-yloxy)phenyl)-3-isopropylurea], the IC50 was < 50 nM. Consider `CN1CCN(C(=O)c2ccc(-c3cc4nccc(Oc5ccc(NC(=O)NC6CC6)cc5F)c4s3)nc2)CC1` [Compound 228, 1-cyclopropyl-3-(3-fluoro-4-(2-(5-(4-methylpiperazine-1-carbonyl)pyridin-2-yl)thieno[3,2-b]pyridin-7-yloxy)phenyl)urea], for which the IC50 was < 50 nM. On to `COC(=O)[C@@H]1CCCN1C(=O)c1cc2nccc(Oc3ccc(NC(=O)NC4CC4)cc3F)c2s1` [Compound 449], for which the IC50 is < 50 nM.

Take `O=C(Nc1ccc(Oc2ccnc3cc(-c4cnn(CCN5CCOCC5)c4)sc23)c(F)c1)NC1CC1` [Compound 155, 1-cyclopropyl-3-(3-fluoro-4-(2-(1-(2-morpholinoethyl)-1H-pyrazol-4-yl)thieno[3,2-b]pyridin-7-yloxy)phenyl)urea]: the IC50 is < 50 nM. Turning to `COCCN(Cc1ccc(-c2cc3nccc(Oc4ccc(NC(=O)NC5CC5)cc4F)c3s2)cc1)C(=O)NC1CCCC1` [Compound 194, 1-(4-(7-(4-cyclopropylaminocarbonylamino-2-fluorophenoxy)thieno-[3,2-b]pyridin-2-yl)benzyl)-3-cyclopentyl-1-(2-methoxyethyl)urea], the IC50 is < 50 nM. For the molecule `O=C(Nc1ccc(Oc2ccnc3cc(-c4ccc(CN5CCN(C(=O)[C@H](O)CO)CC5)cn4)sc23)c(F)c1)NC1CC1` [Compound 540], the IC50 was < 50 nM. For the molecule `CC(=O)OC1CN(C(=O)c2cc3nccc(Oc4ccc(NC(=O)NC5CC5)cc4F)c3s2)C1` [Compound 469, 1-(7-(4-(3-cyclopropylureido)-2-fluorophenoxy)thieno[3,2-b]pyridine-2-carbonyl)azetidin-3-yl acetate], the IC50 is < 50 nM.

For `COC(=O)C1CCN(Cc2ccc(-c3cc4nccc(Oc5ccc(NC(=O)NC6CC6)cc5F)c4s3)nc2)C1` (stereo not drawn) [Compound 478, methyl 1-((6-(7-(4-(3-cyclopropylureido)-2-fluorophenoxy)thieno[3,2-b]pyridin-2-yl)pyridin-3-yl)methyl)pyrrolidine-3-carboxylate], the IC50 is < 50 nM. Turning to `O=C(Nc1ccc(Oc2ccnc3cc(-c4ccc(COC5CNC5)cn4)sc23)c(F)c1)NC1CC1` [Compound 405, 1-(4-(2-(5-((Azetidin-3-yloxy)methyl)pyridin-2-yl)thieno[3,2-b]pyridin-7-yloxy)-3-fluorophenyl)-3-cyclopropylurea], the IC50 was < 50 nM. As for `CN(C)CCNC(=O)[C@@H]1CCCN1Cc1ccc(-c2cc3nccc(Oc4ccc(NC(=O)NC5CC5)cc4F)c3s2)nc1` [Compound 487, (S)-1-((6-(7-(4-(3-cyclopropylureido)-2-fluorophenoxy)thieno[3,2-6]pyridin-2-yl)pyridin-3-yl)methyl)-N-(2-(dimethylamino)ethyl) pyrrolidine-2-carboxamide], the IC50 is < 50 nM. `O=C(Nc1ccc(Oc2ccnc3cc(C(=O)N4CCC(C(=O)O)CC4)sc23)c(F)c1)NC1CC1` [Compound 465, 1-(7-(4-(3-cyclopropylureido)-2-fluorophenoxy)thieno[3,2-b]pyridine-2-carbonyl)piperidine-4-carboxylic acid] had an IC50 of 50 to 100 nM. For the molecule `O=C(CCn1cncn1)NC1CCN(Cc2ccc(-c3cc4nccc(Oc5ccc(NC(=O)NC6CC6)cc5F)c4s3)nc2)CC1` [Compound 347], the IC50 is < 50 nM.

With `CN(C(=O)NCC(=O)O)C1CCN(Cc2ccc(-c3cc4nccc(Oc5ccc(NC(=O)NC6CC6)cc5F)c4s3)nc2)CC1` [Compound 427], the IC50 was < 50 nM. Take `O=C(O)CNC(=O)N1CCN(Cc2ccc(-c3cc4nccc(Oc5ccc(NC(=O)NC6CC6)cc5F)c4s3)nc2)CC1` [Compound 558]: the IC50 was < 50 nM. Consider `CC(C)(CN1CCN(C(=O)c2ccc(-c3cc4nccc(Oc5ccc(NC(=O)NC6CC6)cc5F)c4s3)nc2)CC1)C(=O)O` [Compound 576], for which the IC50 is < 50 nM. Take `O=C(Nc1ccc(Oc2ccnc3cc(-c4ccc(CN5CCC(C(=O)O)CC5)cn4)sc23)c(F)c1)NC1CC1` [Compound 62, l-((6-(7-(4-(3-cyclopropylureido)-2-fluorophenoxy)thieno[3,2-b]pyridin-2-yl)pyridin-3-yl)methyl)piperidine-4-carboxylic acid]: the IC50 is < 50 nM.

Usually IC50 stands for the concentration needed to halve the response being measured.
